According to paper PMC4657038, “Large-Scale Computational Screening Identifies First in Class Multitarget Inhibitor of EGFR Kinase and BRD4” (Scientific Reports, 2015):
Values joined by “and” are separate entries in the source; they are usually repeats but may differ in a detail not shown here. Equal values may be shown once. Read-outs that look alike come from different tables or passages of the source.

Legend:
[1] = biological target: T1, BRD4(1) (Homo sapiens, UniProt O60885); assay: BRD4(1) biochemical alphascreen assay (disruption of BRD4(1) binding to acetylated biotin-histone 4 peptide); set-up: BRD4-BD1 (49–170, BPS Bio #31042) was stored at −80 °C; purchased BPS Bio 31042; conditions: for IC50: alpha screen, average, 9 concentrations in triplicate (n = 3), read-out: IC50 against BRD4(1)
Excerpt: After searching multiple commercial providers for the top 108 compounds, Enamine LLC (http://www.enamine.net/) provided 24 compounds comprising 5 chemical scaffolds including substituted 2-pyrrolidinones, quinazolin-4-amines, thienopyrimidin-4-amines, and imidazolidinones (Supplementary Table 2). […] As illustrated, several compounds have confirmed activity against BRD4(1) and one compound, Z118332870 (2870), is active against BRD4 and EGFR kinase. Compounds that were not confirmed BRD4(1) actives were not tested in the EGFR assay because we were primarily interested in novel dual BRD4 and EGFR inhibitors. To evaluate small molecule BRD4 bromodomain binding, we utilized a biochemical alphascreen assay that measured disruption of BRD4(1) binding to pre-acetylated biotin-histone 4 peptide by proximity detection of the conjugated donor and acceptor beads via transient singlet oxygen. […] To validate results, a counter-screen assay (see Methods for details) was performed to ensure that compounds were not interacting with assay components other than recombinant BRD4(1) (Supplementary Figure 3).
The BRD4(1) alpha screen assay was performed with a pre-acetylated Biotin-Histone 4 Peptide [H4K5/8/12/16(Ac)] 1 – 21 (AnaSpec #64989-025, 0.25 mg). A 200 μM stock was made and stored at −80 °C. BRD4-BD1 (49–170, BPS Bio #31042) was stored at −80 °C at a concentration of 50 μM. All compounds used in assays were kept in a 10 mM stock at −80 °C, with I-BET151 being used as a control. The assay buffer contained 50 mM HEPES, 100 mM NaCl, and 0.1% BSA at a pH of 7.4, and was stored at 4 °C. 10% CHAPS (Sigma C3023) was added to the assay buffer before each experiment and was stored at room temperature.
Before use, assay buffer was equilibrated to room temperature and supplemented with 0.05% CHAPS. 3X His-BRD4-BD1 was diluted in assay buffer to 600 nM with a final concentration of 200 nM in a 12 μl reaction volume. 4 μl per well of 3X His-BRD4-BD1 was added to an OptiPlate-384 (Perkin Elmer #6007290) covered with Top Seal-A Film (Perkin Elmer #6005250) and pulsed at 900 × g. 3X BRD Inhibitors or DMSO vehicle was prepared in Assay Buffer starting at 300 μM and diluting 3X to 46 nM. 4 μl of buffer (positive control), 3X DMSO Vehicle, or 3X BRD Inhibitor (I-BET151 as control) were added to each well, sealed with Top Seal-A film and pulsed at 900 × g. The plate was then incubated at room temperature for 30 minutes. 3X Biotin-H4K4Ac was prepared by diluting stock in Assay Buffer to 600 nM, with a final concentration of 200 nM in a 12 μl reaction volume. 4 μl of Biotin-H4K4Ac was added per well, sealed and pulsed at 900 × g. The plate was then incubated at room temperature for another 30 minutes. AlphaLISA Nickel Chelate Acceptor Beads (Perkin Elmer #1547780, 5 mg/ml, 4 °C) and AlphaScreen Streptavidin Donor Beads (Perkin Elmer #6760002, 5 mg/ml, 4 °C) were prepared at 2.5X by diluting in Assay Buffer to 25 μg/ml with a final concentration of each bead equaling 10 μg/ml in a 20 μl reaction volume. 8 μl per well of Donor and Acceptor beads were added in the dark to each well, sealed, wrapped with foil to protect from light, and pulsed at 900 × g. The plate was then incubated at room temperature for 60 minutes and read on an EnVision instrument using Alpha Mode (680 excitiation/615 emission/read signal). Dose response curves were obtained and interpreted using GraphPad Prism software for curve fitting to obtain IC50 values. […]

[2] = biological target: T1, BRD4(1); assay: Differential scanning fluorimetry (DSF) with BRD4(1); type: binding; set-up: Bromodomain 1 (BRD4(1)) and Bromodomain 2 (BRD4(2))
Experimental: The inhibitory activity of compound Z118332870 (2870) against BRD4(1) was assessed by DSF using a StepOnePlus Real-Time PCR system (Applied Biosystems). Purified BRD4(1) (4 μM final concentration; 10 mM HEPES (pH 7.5), 100 mM NaCl, and 1 mM DTT) was assayed, in triplicates, in a 96-well plate. Compound was added to a final concentration of 100 μM and 2% DMSO. Protein Thermal Shift Dye (1:8000; Applied Biosystems) was used as the fluorescent probe and fluorescence was measured using the ROX Reporter channel (620 nm). Protein stability was investigated by programing the thermocycler to increase the temperature from 25 °C to 99 °C using 0.2 °C increments and 10 second incubations per increment. The inflection point of the transition curve/melting temperature (Tm) was calculated using the Boltzmann equation within the Protein Thermal Shift Software (v.1.1) (Applied Biosystems). The ΔTm was calculated by using DMSO control wells as a reference.

[3] = biological target: EGFR (ERBB1) (Homo sapiens, UniProt P00533); assay: EGFR kinase activity enzyme assay (radioisotope filter binding, hotspot); type: biochemical
Chain of EGFR (ERBB1) (P00533 25-1210): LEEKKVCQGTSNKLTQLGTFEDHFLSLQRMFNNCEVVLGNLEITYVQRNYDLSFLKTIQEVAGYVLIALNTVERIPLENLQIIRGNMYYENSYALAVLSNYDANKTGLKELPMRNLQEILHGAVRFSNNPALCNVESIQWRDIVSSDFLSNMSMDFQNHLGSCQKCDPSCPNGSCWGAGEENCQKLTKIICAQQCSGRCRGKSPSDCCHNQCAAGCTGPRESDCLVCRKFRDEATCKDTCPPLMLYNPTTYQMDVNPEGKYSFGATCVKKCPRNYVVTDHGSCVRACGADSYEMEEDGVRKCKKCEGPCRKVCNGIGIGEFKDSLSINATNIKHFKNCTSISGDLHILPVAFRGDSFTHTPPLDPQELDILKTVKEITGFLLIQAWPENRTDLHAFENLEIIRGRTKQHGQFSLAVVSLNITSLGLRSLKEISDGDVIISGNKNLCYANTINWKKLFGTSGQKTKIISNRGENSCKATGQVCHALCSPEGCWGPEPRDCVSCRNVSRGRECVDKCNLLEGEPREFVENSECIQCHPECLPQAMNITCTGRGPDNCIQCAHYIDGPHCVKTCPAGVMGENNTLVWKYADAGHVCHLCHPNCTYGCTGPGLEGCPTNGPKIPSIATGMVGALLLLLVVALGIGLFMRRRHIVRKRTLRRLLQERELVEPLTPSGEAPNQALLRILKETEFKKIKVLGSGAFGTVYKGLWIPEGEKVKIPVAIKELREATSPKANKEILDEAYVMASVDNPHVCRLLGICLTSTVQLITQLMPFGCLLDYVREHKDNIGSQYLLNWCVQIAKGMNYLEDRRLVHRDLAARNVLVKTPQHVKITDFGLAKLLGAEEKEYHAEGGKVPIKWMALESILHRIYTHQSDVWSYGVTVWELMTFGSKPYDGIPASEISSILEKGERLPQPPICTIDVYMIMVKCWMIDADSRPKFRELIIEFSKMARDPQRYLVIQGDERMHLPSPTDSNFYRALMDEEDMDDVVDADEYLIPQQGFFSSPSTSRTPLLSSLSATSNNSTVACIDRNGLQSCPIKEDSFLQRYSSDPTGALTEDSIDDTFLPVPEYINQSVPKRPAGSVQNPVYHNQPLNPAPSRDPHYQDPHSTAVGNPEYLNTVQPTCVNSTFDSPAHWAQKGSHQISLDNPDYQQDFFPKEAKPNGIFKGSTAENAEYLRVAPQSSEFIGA
Experimental: A radioisotope filter binding method was used in the EGFR kinase hotspot assay, performed by the Reaction Biology Corporation, LLC. The base reaction buffer was composed of 20 mM HEPES (pH 7.5); 10 mM MgCl2, 1 mM EGTA, 0.02% Brij35, 0.02 mg/mL BSA, 0.1 mM Na3VO4, 2 mM DTT, and 1% DMSO. The substrate was freshly prepared using the base reaction buffer. Kinase was added into the substrate solution at a concentration of 10 μM and gently mixed. Compounds were then added into the kinase reaction mixture. At this point, the ^33P-ATP was added into the reaction mixture to initiate the reaction. The reaction was incubated for 120 minutes at room temperature. After completion, reactions were spotted onto P81 ion exchange paper (Whatman #3698-915). Filters were then washed extensively in 0.75% Phosphoric acid and a scintillation counter was used to quantify the amount of radioactivity on the filter.

[4] = biological target: ERBB2 (Homo sapiens, UniProt P04626); assay: Kinase activity enzyme profiling, ERBB2; type: biochemical
Chain of ERBB2 (P04626 23-1255): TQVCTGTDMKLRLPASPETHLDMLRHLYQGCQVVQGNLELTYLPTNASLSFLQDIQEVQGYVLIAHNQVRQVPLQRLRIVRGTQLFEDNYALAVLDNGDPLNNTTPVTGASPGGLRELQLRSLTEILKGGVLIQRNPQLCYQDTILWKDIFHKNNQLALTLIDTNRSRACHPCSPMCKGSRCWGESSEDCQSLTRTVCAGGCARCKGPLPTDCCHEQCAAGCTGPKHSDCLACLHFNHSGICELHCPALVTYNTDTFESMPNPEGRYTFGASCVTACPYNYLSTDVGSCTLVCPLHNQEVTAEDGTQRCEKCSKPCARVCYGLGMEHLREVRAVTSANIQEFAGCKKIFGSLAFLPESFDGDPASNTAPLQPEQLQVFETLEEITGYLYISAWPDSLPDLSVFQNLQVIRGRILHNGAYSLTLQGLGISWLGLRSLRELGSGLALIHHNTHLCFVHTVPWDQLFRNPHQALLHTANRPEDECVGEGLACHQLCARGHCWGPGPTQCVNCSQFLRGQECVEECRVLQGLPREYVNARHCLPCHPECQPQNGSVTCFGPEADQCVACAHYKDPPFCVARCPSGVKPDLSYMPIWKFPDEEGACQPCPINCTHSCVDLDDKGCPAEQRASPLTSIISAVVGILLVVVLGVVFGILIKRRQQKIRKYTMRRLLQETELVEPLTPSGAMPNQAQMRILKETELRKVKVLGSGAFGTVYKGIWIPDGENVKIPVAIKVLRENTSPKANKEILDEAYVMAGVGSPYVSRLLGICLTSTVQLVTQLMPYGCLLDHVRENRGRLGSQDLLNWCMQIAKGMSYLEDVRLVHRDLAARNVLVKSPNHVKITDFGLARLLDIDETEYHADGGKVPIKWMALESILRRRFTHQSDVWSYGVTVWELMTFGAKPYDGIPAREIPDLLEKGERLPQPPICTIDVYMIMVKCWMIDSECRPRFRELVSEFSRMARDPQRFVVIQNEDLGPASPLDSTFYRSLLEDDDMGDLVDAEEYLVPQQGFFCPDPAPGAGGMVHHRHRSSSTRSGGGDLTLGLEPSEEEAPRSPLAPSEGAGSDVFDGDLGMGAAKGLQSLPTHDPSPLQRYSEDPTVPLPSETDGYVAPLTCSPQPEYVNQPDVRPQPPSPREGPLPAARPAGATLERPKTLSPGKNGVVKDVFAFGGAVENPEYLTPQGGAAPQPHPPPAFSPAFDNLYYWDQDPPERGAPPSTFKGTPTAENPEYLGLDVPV

[5] = biological target: ERBB4 (Homo sapiens, UniProt Q15303); assay: Kinase activity enzyme profiling, ERBB4; type: biochemical
Chain of ERBB4 (Q15303 26-1308): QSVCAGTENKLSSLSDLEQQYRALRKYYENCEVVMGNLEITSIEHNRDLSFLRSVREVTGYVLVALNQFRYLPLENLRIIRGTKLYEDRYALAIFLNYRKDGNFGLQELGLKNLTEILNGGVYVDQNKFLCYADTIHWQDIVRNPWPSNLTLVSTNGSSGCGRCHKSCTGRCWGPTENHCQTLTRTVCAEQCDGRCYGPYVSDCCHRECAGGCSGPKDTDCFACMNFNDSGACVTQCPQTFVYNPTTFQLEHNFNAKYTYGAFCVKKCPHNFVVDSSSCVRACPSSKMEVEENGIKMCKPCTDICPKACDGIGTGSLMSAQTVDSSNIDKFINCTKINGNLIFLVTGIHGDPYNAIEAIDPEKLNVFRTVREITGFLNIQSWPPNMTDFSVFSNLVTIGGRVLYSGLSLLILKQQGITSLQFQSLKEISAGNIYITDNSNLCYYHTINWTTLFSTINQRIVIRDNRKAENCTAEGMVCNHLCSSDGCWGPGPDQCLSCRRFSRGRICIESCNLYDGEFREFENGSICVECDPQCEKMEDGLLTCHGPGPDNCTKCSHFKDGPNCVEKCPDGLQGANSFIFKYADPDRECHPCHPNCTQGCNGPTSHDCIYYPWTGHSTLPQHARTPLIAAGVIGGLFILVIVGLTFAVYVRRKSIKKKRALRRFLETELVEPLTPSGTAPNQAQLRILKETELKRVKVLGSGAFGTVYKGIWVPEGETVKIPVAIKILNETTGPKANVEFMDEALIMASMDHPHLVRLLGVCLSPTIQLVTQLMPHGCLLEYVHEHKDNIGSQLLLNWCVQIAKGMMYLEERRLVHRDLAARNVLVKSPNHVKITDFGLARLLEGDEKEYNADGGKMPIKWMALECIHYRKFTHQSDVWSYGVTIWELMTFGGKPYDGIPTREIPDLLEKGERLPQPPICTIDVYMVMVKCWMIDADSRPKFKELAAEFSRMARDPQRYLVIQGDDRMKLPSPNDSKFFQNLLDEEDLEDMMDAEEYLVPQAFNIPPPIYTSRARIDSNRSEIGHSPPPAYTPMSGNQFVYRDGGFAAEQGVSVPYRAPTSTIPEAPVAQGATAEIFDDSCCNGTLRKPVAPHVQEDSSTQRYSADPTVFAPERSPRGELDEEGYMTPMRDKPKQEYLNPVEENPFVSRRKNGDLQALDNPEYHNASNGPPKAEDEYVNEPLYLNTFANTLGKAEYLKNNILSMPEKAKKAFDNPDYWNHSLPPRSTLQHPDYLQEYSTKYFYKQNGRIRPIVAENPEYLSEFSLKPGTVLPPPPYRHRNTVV

Compound | activity in BRD4(1) alphascreen assay (in words) [1] | IC50 [1] | ΔTm at 100 µM ([2]; DSF, compound 100 μM, BRD4(1) 4 μM, relative to DMSO) [°C] | IC50 ([2]; corresponds to ΔTm based on the standard curve, read-out: predicted IC50 from DSF standard curve) [µM] | IC50 ([3]; kinase enzyme activity assay, read-out: IC50 against EGFR) [µM] | IC50 ([3]; radioisotope filter binding assay, substrate concentration 10 μM, n = 3, read-out: IC50 against EGFR kinase) [µM] | selectivity for EGFR over ERBB2 ([4]; EGFR vs ERBB2 IC50) | IC50 ([4]; kinase activity enzyme profiling, read-out: IC50 against ERBB2) [µM] | selectivity for EGFR over ERBB4 ([5]; EGFR vs ERBB4 IC50) [fold] | IC50 ([5]; kinase activity enzyme profiling, read-out: IC50 against ERBB4) [µM]
c1nc(NCCCN2CCOCC2)c2c3c(sc2n1)CCC3 [compound 0012] | Confirmed active | 17 µM | – | – | – | – | – | – | – | –
COc1cc2ncnc(NCCOc3ccccc3F)c2cc1OC [compound 2870] | Confirmed active | 9 µM and 9.02 µM | 1.15 | 9.1 | 0.0442 | 0.044 | about 200 fold | 8.73 | 500 | 24.2
COc1ccc(Br)cc1S(=O)(=O)Nc1cccc(N2CCCC2=O)c1 [compound 8302] | Confirmed active | – | – | – | – | – | – | – | – | –
